Each structure is given as a SMILES string.

For the assay, the target named is T1, PTP1B (Homo sapiens, UniProt P18031).
T1 construct: purchased Abcam, Cambridge, UK
T1 sequence (P18031 1-435): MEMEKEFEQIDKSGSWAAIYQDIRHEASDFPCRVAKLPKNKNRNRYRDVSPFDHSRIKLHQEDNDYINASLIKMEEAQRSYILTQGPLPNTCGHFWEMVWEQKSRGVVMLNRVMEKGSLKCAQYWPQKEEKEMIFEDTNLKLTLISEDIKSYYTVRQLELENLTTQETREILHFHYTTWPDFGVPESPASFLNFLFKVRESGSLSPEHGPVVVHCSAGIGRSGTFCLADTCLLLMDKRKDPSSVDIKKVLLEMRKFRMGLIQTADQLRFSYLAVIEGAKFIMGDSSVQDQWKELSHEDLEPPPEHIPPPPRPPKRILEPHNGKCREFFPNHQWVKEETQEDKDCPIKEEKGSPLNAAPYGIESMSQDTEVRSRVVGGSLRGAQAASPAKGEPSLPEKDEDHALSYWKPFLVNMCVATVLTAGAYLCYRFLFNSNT
The experiment in a line: PTP1B inhibition assay (pNPP substrate). Format: biochemical. The note with it: human recombinant PTP1B, 37 °C, 30 min, triplicate, means ± SD, read-out: PTP1B inhibitory activity IC50. The procedure:
The inhibitory activity of the isolated compounds against PTP1B (Abcam, Cambridge, UK, human recombinant) was assayed according to the method reported previously. The reagent p-nitrophenyl phosphate (pNPP) was used as the substrate, and oleanolic acid was used as the positive control. In brief, a 100 μL assay mixture containing 1 μg/mL PTP1B, samples, 4 mM pNPP, 55 mM NaCl, 2.2 mM DTT, 1.1 mM EDTA, and […] in 11 mM Tris-HCl, pH 7.5, was incubated at 37 °C for 30 min in a 96-well plate. The absorbance of 405 nm was measured by a microplate reader. Data were analyzed by GraphPad Prism v.10.2.0 software. All data were obtained in triplicate and presented as means ± SD.
Regarding `C=C1CCC2(C(=O)O)CCC3(C)C(=CCC4C5(C)CC(O)C(OC(=O)C=Cc6ccc(O)cc6)C(C)(C)C5CCC43C)C2C1C` (stereo not drawn) [Compound 4, 3β-trans-p-coumaroyloxy-2α-hydroxy-12,20(30)-ursadien-28-oic acid], the concentration for half-maximal inhibition (IC50) (usually the concentration needed to halve the response being measured) came out at 48.7 ± 5.17 µM.
As for `C=C1CCC2(C(=O)O)CCC3(C)C(=CCC4C5(C)CC(O)C(OC(=O)C=Cc6ccc(O)c(OC)c6)C(C)(C)C5CCC43C)C2C1C` (stereo not drawn) [Compound 5, 3β-trans-feruloyloxy-2α-hydroxy-12,20(30)-ursadien-28-oic acid], the concentration for half-maximal inhibition (IC50) is 23.7 ± 0.73 µM.
Consider `C=C1CC[C@]2(C(=O)O)CC[C@]3(C)C(=CC[C@@H]4[C@@]5(C)C[C@@H](O)[C@@H](OC(=O)/C=C/c6ccc(O)c(OC)c6)C(C)(C)[C@@H]5CC[C@]43C)[C@@H]2[C@H]1C` [Compound 6, 3α-trans-feruloyloxy-2α-hydroxy-12,20(30)-ursadien-28-oic acid], for which the IC50 was determined as 34 ± 4.88 µM.
The value for `C[C@H]1[C@H](C)CC[C@]2(C(=O)O)CC[C@]3(C)C(=CC[C@@H]4[C@@]5(C)C[C@@H](O)[C@H](OC(=O)/C=C\c6ccc(O)cc6)C(C)(C)[C@@H]5CC[C@]43C)[C@H]12` [Compound 10, 3β-O-cis-p-coumaroyl-2α-hydroxy-urs-12-en-28-oic acid] was 19.2 ± 0.22 µM.
Consider `C[C@H]1[C@H](C)CC[C@]2(C(=O)O)CC[C@]3(C)C(=CC[C@@H]4[C@@]5(C)C[C@@H](O)[C@H](OC(=O)/C=C/c6ccc(O)cc6)C(C)(C)[C@@H]5CC[C@]43C)[C@H]12` [Compound 11, jacoumaric acid], for which the IC50 turned out to be 26.2 ± 1.31 µM.
The value for `COc1cc(/C=C\C(=O)O[C@H]2[C@H](O)C[C@]3(C)[C@H]4CC=C5[C@@H]6[C@@H](C)[C@H](C)CC[C@]6(C(=O)O)CC[C@@]5(C)[C@]4(C)CC[C@H]3C2(C)C)ccc1O` [Compound 12, 3β-O-cis-feruloyl-2α-hydroxy-urs-12-en-28-oic acid] was 16.2 ± 0.57 µM; that for `COc1cc(/C=C/C(=O)O[C@H]2[C@H](O)C[C@]3(C)[C@H]4CC=C5[C@@H]6[C@@H](C)[C@H](C)CC[C@]6(C(=O)O)CC[C@@]5(C)[C@]4(C)CC[C@H]3C2(C)C)ccc1O` [Compound 13, 3β-O-trans-feruloyl-2α-hydroxy-urs-12-en-28-oic acid] was 10.3 ± 1.21 µM.
`C=C1CC[C@]2(C(=O)O)CC[C@]3(C)C(=CC[C@@H]4[C@@]5(C)C[C@@H](O)[C@@H](OC(=O)/C=C/c6ccc(O)cc6)C(C)(C)[C@@H]5CC[C@]43C)[C@@H]2[C@H]1C` [Compound 15, 3α-trans-coumaroyloxy-2α-hydroxy-12,20(30)-dien-28-ursolic acid]: the IC50 amounted to 17.1 ± 1.67 µM.
